In ChEMBL document CHEMBL4418497, “Compositions and methods relating to inhibiting serine hyrdoxymethyltransferase 2 activity” (2016):

Each compound was assayed against T1, Serine hydroxymethyltransferase, mitochondrial (Homo sapiens) (UniProt P34897) (assay: Inhibition of His-tagged human recombinant SHMT2 expressed in Escherichia coli BLR(DE3) assessed as reduction in NADPH level using L-serine, THF and NADP+ at 6.5 or 26.5 uM incubated for 5 mins by SHMT2-MTHFD coupled reaction based fluorescence assay relative to control). Details: not given.
T1 sequence (whole entry): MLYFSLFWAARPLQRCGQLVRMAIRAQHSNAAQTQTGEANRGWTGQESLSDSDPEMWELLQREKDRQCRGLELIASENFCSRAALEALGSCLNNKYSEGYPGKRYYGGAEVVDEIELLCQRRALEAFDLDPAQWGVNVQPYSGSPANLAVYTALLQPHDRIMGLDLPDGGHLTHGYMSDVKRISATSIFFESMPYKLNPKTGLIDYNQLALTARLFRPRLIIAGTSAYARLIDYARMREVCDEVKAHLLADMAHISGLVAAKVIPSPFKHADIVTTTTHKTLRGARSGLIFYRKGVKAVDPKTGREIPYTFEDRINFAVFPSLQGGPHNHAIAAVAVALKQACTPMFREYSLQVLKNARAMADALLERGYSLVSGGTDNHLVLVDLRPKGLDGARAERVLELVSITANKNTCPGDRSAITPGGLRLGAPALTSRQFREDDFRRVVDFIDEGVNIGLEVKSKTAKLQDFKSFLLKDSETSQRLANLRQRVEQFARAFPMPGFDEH

Compound | inhibition [%]
c1ccc2c(N3CCNCC3)cccc2c1 | 86.1
Cc1onc(-c2c(Cl)cccc2Cl)c1NC(=O)Nc1ccc(N(C)C)c(Cl)c1C#N | 97.1
NC(=O)NC1NC(=O)NC1=O (configuration not stated) | 58.2
O=C(Nc1cccc2c(=O)cc(-c3nnn[nH]3)oc12)c1ccc(OCCCCc2ccccc2)cc1 | 65.5
COC(=O)/C=C(/Nc1cc(OC)ccc1OC)C(=O)OC | 56.3
Oc1ccc2[nH]cc(C3=CCNCC3)c2n1 | 73.2
Cc1[nH]c2ccc(O)cc2c1CCN | 59
Nc1nc(=O)c2nc(CNc3ccc(C(=O)N[C@@H](CCC(=O)O)C(=O)O)cc3)cnc2[nH]1 | 53.6
COC(=O)[C@@H]1C(O)CC[C@H]2CN3CCc4c([nH]c5ccccc45)[C@@H]3C[C@@H]21 (some centres not stated) | 73.9
COc1cc2c(CCNC(C)=O)c[nH]c2cc1O | 92.7
COc1cc(OC)c2c(c1Cl)OC1(C2=O)C(O)=CC(=O)CC1C (configuration not stated) | 77.8
Cc1cccc(C)c1NC(=O)[C@@H]1CCCCN1C | 60.1
CN1CC[C@@]2(C)c3cc(OC(=O)Nc4ccccc4)ccc3N(C)[C@@H]12 | 56.6
Cc1cccc(CCN2CCC(C(=O)c3ccc(NS(C)(=O)=O)cc3)CC2)n1 | 54.9
CN(C)N1C(=O)c2cccc3c(Br)ccc(c23)C1=O | 69.8
CCNc1cc(N)[n+](CC)c2[nH]nc(/N=C/c3cc(Cl)cc(Cl)c3O)c12 | 97
C=C(C)[C@H]1CC=C(C(=O)O)CC1 | 70
COc1ccc2cc1Oc1ccc(cc1)C[C@H]1c3c(cc4c(c3Oc3cc5c(cc3OC)CCN(C)[C@@H]5C2)OCO4)CCN1C | 70.4
Fc1ccc(COc2ccc(-c3nnco3)cc2)cc1 | 53.7
CCOC(=O)[C@H](CCc1ccccc1)N[C@H](C)C(=O)N1C2CCCCC2C[C@H]1CO (some centres not stated) | 53
CC(C)(C)C(=O)C(C#N)CNc1cccc2nsnc12 (configuration not stated) | 69.6
CC(=O)[C@H]1CC[C@H]2[C@@H]3CCC4C[C@H](O)CC[C@]4(C)[C@H]3C[C@H](O)[C@]12C (some centres not stated) | 71.6
Nc1cc(-c2ccncc2)c[nH]c1=O | 92.3
CC(=O)N[C@H]1CN2CC[C@H](O)[C@@H]2[C@@H](O)[C@@H]1O | 63.8
CS(=O)(=O)c1ccc2ccn(O)c2c1 | 60.3
CN1CCN(CCCN2c3ccccc3SC3C=CC(Cl)=CC32)CC1 (configuration not stated) | 61.6
CNC(=O)Oc1ccc2c(c1)[C@]1(C)CCN(C)[C@@H]1N2 | 55.9
COC(=O)[C@@H](c1ccc2sccc2c1)c1ccccc1Cl | 53.3
COC(=O)[C@@H]1[C@H]2C[C@H]3c4[nH]c5ccccc5c4CCN3C[C@@H]2CC[C@@H]1O | 57.4
N#Cc1ccc(S(=O)(=O)Cc2cccc3ccccc23)cc1 | 54.5

What follows are compounds tested against T2, Serine hydroxymethyltransferase, mitochondrial (Homo sapiens, UniProt P34897) (assay: Inhibition of His-tagged human recombinant SHMT2 expressed in Escherichia coli BLR(DE3) assessed as reduction in NADPH level using L-serine, THF and NADP+ incubated for 5 mins by SHMT2-MTHFD coupled reaction based fluorescence assay). Details: read-out: IC50.
T2 sequence (P34897 whole entry): T1 sequence (whole entry)

Compound | IC50 [µM]
O=C(Nc1cc(F)c2nc(N3CCOCC3)ccc2c1)C1CCC1 | 1.55
COc1cc(NC(=O)n2ncc3cc(Cl)ccc32)cc(OC)c1 | 11.8
C=CCOc1ccc(C2CC(=O)Nc3c(-c4ccccc4OC)csc32)cc1 (configuration not stated) | 1.02
Cc1cc2nc(CSc3nc4ccc(NC(=O)CCC5CCCC5)cc4s3)cc(=O)n2o1 | 9.55
COc1ccc(NC(=O)N2CCN3CCCCC3C2)cc1OC (configuration not stated) | 3.39
O=C(CSc1nc2ncccc2o1)Nc1ccc(S(=O)(=O)NC2CCCCC2)cc1 | 3.02
Cc1c(C(=O)N2CCOCC2)oc2c1-c1nn(CC(=O)NC3CCCC(C)C3C)cc1CC2 (configuration not stated) | 2.69
COc1ccc2c(c1)C=C(C(=O)Nc1ccc(OC)cc1OC)CO2 | 8.71
COc1ccc(NC2c3ncccc3C(=O)N2Cc2ccco2)cc1OC (configuration not stated) | 12.6
CC1=NC2c3c(oc(C(=O)NCC4CCCO4)c3C)CCC2S1 (configuration not stated) | 4.07
CCN(CC)CCNC(=O)c1noc2c1CCc1sccc1-2 | 4.17
CCOC(=O)Cc1csc(NC(=O)Nc2cn(CC(C)C)c(=O)c3ccccc23)n1 | 3.31
CC(C)Cn1cc(NC(=O)NCCN2CCC(C)CC2)c2ccccc2c1=O | 3.8
CC(=O)N1CCc2c(c(=O)[nH]c3onc(C)c23)C1 | 1.41
COc1ccc(Nc2ncnc3sc(C(=O)O)cc23)c(OC)c1 | 1.35
CC1=NC2c3c(oc(C(=O)NC4CCCC4)c3C)CCC2S1 (configuration not stated) | 4.37
CCOc1ccc2nc(NC(=O)CSc3nc4ncccc4o3)sc2c1 | 4.37
CC(C)Cn1cc(NC(=O)N2CCCc3ccccc32)c2ccccc2c1=O | 3.02
COc1ccc(Nc2nc(NCCO)nc3c2cnn3C)cc1 | 1.86
CCC(CC)n1nc(O)c2c(C)cc(=O)[nH]c21 | 7.41
COc1ccc(NC(=O)N2CCn3c(C)ccc3C2C(C)C)cc1OC (configuration not stated) | 2.69
Cc1c(C(=O)NCCN2CCOCC2)oc2c1-c1[nH]ncc1CC2 | 3.55
CCC(C)NC(=O)Nc1cn(CC(C)C)c(=O)c2ccccc12 (configuration not stated) | 2.34
CCCNC(=O)Nc1cn(CC(C)C)c(=O)c2ccccc12 | 2.14

Compound | IC50 [µM]
COc1cc(OC)c(NC(=O)NCCC2=CSC3CC(C)CCC23)cc1Cl (configuration not stated) | 7.08
CC(C)Cn1cc(NC(=O)N(Cc2ccco2)C2CCCCC2C)c2ccccc2c1=O (configuration not stated) | 6.31
CC(C)Cn1cc(NC(=O)NC2CCCCC2)c2ccccc2c1=O | 1.74
Cc1ccc(-c2cc(Nc3cccc4cccnc34)nc(C)n2)cc1 | 1.51
CCOc1ccc(Nc2ncnc3sc(C(=O)O)c(C)c23)cc1 | 9.33
CCOc1cc(-c2nnc3[nH]c(=O)n(C)c(=O)c3n2)ccc1OC(C)C | 0.69
CCCCCC(C)n1nc(O)c2c(C)cc(=O)[nH]c21 (configuration not stated) | 7.08
CC(C)Cn1cc(NC(=O)NCCN2CCCCC2)c2ccccc2c1=O | 1.74
O=c1c(Nc2cccc3c2CCCC3)c(-c2ccc(Cl)cc2)c1=O | 5.25
CCN(CC)S(=O)(=O)c1ccc(NC(=O)Nc2cn(CC(C)C)c(=O)c3ccccc23)cc1 | 3.72
Cc1cccc(NC(=O)Nc2cn(CC(C)C)c(=O)c3ccccc23)n1 | 2.57
COc1ccc(Nc2nnc(-n3nc(C)cc3C)c3ccccc23)c(OC)c1 | 3.47
CCOc1ccc(NS(=O)(=O)c2ccc3c4c2CC(=O)N4CC(C)S3)cc1 (configuration not stated) | 5.01
Cc1cc(NC(=O)N2CCSc3ncccc32)ccc1Br | 4.37
Cc1csc(NC(=O)Nc2cn(CC(C)C)c(=O)c3ccccc23)n1 | 3.47
COCCN1CCn2c(nc3cc(NC(=O)NC4CCCCC4)ccc32)C1 | 5.13
CC(C)Cn1cc(NC(=O)Nc2ccc(N3CCC(C)CC3)cc2)c2ccccc2c1=O | 8.91
COc1cc2c(cc1OC)C(C)N(C(=O)Nc1cn(CC(C)C)c(=O)c3ccccc13)CC2 (configuration not stated) | 3.02
Cc1c(C(=O)NCc2ccco2)oc2c1-c1[nH]ncc1CC2 | 6.92
COc1ccc(NC(=O)N2CCSc3ccccc32)cc1OC | 7.08
CC(C)Cn1cc(NC(=O)NCC2CCN(CCc3cccs3)CC2)c2ccccc2c1=O | 3.24
CC(C)Cn1cc(NC(=O)Nc2cccc(F)c2)c2ccccc2c1=O | 2.24
CCNc1nc2[nH]c(=O)cc(O)c2s1 | 1.91
CC(C)Cn1cc(NC(=O)NC2CCCC2)c2ccccc2c1=O | 2.24

Compound | IC50 [µM]
CCC(CC)C(=O)Nc1cc(F)c2nc(N3CCOCC3)ccc2c1 | 5.13
Cc1cc(C)n(-c2nnc(Nc3ccc4c(c3)OCCO4)c3ccccc23)n1 | 2.19
COc1ccc(OC)c(NC(=O)CSc2nc3ncccc3o2)c1 | 2.14
CC(C)Cn1cc(NC(=O)Nc2ccccn2)c2ccccc2c1=O | 3.31
CCC1c2ccc(C)n2CCN1C(=O)Nc1cc(OC)ccc1OC (configuration not stated) | 6.31
O=C(Cc1cccs1)Nc1cc(F)c2nc(N3CCOCC3)ccc2c1 | 4.79
CC(C)Cn1cc(NC(=O)N2CCN(c3cccc(Cl)c3)CC2)c2ccccc2c1=O | 5.89
COc1c(C)cnc(CSc2nc3ncccc3o2)c1C | 4.07
Cc1ccc2oc(SCC(=O)Nc3ccc(S(=O)(=O)N4CCCC4)cc3)nc2n1 | 11.8
CC(C)Cn1cc(NC(=O)NCCCN2CCCC(C)C2)c2ccccc2c1=O (configuration not stated) | 2.45
COc1cc(OC)c(NC(=O)N2CCn3cccc3C2C)cc1Cl (configuration not stated) | 12.9
O=C(Nc1ccc2c(c1)OCCO2)N1CCSc2ncccc21 | 2.75
CC(C)Cn1cc(NC(=O)Nc2ccc(F)cc2Cl)c2ccccc2c1=O | 1.86
Cc1cc(=O)c2c(=O)n(-c3nc4ccccc4s3)[nH]c2[nH]1 | 1.62
CC1CC(C)CN(CCCNC(=O)Nc2cn(C)c(=O)c3ccccc23)C1 (configuration not stated) | 10.7
Cn1nc(C(=O)N2CC=C(c3ccccc3)CC2)c2c1-c1ccsc1CC2 | 0.85
COc1ccc(Nc2nc(NC3CCCC3)nc3c2cnn3C)cc1 | 2.69
CC(C)Cn1cc(NC(=O)NC(c2cccs2)C(C)C)c2ccccc2c1=O (configuration not stated) | 4.07
CCOC(=O)c1c(C)oc2c1c1c(c3ccccc32)OCN(CCCC(=O)O)C1 | 1.35
O=C1CSC(c2ccccn2)N1c1ccc2ccccc2c1 (configuration not stated) | 11
CNc1nc2[nH]c(=O)cc(O)c2s1 | 2.51
O=C1CCCC2=C1C(c1cccs1)N(S(=O)(=O)c1ccc(F)cc1)c1ccccc1N2 (configuration not stated) | 4.57
CC(C)Cn1cc(NC(=O)NC2CC2)c2ccccc2c1=O | 8.71

Same assay, conditions: read-out: pIC50 (converted)

Compound | IC50 [µM]
O=C(O)CCc1nc(-c2ccccc2)c(-c2ccccc2)o1 [OXAPROZIN] | 1.95
